In ChEMBL document CHEMBL5465560, “Selectivity Literature for EUbOPEN Chemogenomic Library” (2024):

What was measured:
[1] = target: T1, Inhibitor of nuclear factor kappa-B kinase subunit beta (Homo sapiens) (UniProt O14920); experiment: Selectivity interaction (Kinase panel (literature)) EUB0001199aCl IKBKB; conditions: at 1 µM
T1 sequence (whole entry): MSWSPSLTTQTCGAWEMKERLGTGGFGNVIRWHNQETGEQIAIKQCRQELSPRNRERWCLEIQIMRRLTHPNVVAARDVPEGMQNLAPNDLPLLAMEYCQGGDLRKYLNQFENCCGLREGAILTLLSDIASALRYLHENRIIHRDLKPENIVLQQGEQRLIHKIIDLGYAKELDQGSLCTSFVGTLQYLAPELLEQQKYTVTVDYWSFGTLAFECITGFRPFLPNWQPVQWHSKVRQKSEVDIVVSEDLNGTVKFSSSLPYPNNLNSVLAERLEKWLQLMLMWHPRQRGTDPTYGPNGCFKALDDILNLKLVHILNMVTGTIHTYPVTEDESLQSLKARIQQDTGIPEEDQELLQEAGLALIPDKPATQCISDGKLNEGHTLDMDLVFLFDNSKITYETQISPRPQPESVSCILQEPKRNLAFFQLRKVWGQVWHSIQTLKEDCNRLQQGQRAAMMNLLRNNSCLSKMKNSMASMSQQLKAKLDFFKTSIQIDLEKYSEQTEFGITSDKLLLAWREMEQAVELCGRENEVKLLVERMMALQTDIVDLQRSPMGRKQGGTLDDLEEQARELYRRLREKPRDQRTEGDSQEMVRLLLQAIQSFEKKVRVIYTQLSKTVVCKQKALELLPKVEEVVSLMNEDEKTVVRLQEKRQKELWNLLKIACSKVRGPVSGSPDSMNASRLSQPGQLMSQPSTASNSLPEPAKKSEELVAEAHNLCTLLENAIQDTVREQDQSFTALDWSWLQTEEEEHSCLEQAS

[2] = target: Serine/threonine-protein kinase MRCK alpha (Homo sapiens) (UniProt Q5VT25); experiment: Selectivity interaction (KinomeScan (DiscoverX)) EUB0000618a CDC42BPA; conditions: at 10 µM
Sequence of Serine/threonine-protein kinase MRCK alpha (Homo sapiens) (Q5VT25 whole entry): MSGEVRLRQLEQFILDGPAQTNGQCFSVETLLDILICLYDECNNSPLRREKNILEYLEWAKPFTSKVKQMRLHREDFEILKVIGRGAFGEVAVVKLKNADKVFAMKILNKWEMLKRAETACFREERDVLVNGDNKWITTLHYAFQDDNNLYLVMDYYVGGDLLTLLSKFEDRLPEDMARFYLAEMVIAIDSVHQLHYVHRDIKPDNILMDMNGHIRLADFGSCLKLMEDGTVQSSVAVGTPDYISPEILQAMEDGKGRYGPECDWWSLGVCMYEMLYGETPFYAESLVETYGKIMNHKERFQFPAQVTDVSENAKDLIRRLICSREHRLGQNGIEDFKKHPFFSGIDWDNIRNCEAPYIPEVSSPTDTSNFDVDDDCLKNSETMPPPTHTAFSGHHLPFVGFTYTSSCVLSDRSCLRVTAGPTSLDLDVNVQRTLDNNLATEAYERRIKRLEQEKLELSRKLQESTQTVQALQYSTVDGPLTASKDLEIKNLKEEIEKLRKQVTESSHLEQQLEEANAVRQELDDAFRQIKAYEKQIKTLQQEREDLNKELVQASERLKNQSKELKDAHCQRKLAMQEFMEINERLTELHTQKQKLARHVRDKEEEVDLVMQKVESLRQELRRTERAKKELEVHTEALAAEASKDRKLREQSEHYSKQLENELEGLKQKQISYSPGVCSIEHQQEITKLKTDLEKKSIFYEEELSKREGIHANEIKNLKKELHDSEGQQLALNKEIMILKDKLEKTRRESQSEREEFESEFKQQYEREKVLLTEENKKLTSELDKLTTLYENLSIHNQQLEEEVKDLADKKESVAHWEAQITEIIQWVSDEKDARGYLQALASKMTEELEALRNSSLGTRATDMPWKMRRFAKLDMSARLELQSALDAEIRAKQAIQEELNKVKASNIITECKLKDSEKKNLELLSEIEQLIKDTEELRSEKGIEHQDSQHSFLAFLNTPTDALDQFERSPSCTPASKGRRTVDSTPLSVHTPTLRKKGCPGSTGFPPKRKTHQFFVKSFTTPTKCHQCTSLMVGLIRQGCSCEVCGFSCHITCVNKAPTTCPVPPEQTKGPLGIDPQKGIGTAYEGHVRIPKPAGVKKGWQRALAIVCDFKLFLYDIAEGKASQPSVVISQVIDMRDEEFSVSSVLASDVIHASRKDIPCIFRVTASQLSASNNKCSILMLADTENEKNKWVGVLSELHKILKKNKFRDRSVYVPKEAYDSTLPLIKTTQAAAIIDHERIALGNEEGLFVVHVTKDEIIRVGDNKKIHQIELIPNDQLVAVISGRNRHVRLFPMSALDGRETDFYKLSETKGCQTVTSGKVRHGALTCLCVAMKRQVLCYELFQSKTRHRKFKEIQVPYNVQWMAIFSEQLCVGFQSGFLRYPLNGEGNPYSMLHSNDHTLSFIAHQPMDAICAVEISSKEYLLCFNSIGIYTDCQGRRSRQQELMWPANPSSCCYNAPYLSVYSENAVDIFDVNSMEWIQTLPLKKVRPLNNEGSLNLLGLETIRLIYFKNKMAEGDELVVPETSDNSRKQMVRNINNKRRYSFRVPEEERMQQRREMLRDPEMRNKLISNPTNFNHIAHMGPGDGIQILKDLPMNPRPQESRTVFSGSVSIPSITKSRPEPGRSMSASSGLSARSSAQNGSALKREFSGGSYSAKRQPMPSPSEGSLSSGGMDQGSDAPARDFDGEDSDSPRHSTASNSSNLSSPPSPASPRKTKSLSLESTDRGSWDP

[3] = target: T2, Mitogen-activated protein kinase kinase kinase 5 (Homo sapiens) (UniProt Q99683); experiment: Selectivity interaction (ActivX KiNativ screen (kinase selectivity in THP-1 cell lysates)) EUB0000639a MAP3K5; assay type: subcellular; conditions: lysate, at 0.2 µM
T2 sequence (whole entry): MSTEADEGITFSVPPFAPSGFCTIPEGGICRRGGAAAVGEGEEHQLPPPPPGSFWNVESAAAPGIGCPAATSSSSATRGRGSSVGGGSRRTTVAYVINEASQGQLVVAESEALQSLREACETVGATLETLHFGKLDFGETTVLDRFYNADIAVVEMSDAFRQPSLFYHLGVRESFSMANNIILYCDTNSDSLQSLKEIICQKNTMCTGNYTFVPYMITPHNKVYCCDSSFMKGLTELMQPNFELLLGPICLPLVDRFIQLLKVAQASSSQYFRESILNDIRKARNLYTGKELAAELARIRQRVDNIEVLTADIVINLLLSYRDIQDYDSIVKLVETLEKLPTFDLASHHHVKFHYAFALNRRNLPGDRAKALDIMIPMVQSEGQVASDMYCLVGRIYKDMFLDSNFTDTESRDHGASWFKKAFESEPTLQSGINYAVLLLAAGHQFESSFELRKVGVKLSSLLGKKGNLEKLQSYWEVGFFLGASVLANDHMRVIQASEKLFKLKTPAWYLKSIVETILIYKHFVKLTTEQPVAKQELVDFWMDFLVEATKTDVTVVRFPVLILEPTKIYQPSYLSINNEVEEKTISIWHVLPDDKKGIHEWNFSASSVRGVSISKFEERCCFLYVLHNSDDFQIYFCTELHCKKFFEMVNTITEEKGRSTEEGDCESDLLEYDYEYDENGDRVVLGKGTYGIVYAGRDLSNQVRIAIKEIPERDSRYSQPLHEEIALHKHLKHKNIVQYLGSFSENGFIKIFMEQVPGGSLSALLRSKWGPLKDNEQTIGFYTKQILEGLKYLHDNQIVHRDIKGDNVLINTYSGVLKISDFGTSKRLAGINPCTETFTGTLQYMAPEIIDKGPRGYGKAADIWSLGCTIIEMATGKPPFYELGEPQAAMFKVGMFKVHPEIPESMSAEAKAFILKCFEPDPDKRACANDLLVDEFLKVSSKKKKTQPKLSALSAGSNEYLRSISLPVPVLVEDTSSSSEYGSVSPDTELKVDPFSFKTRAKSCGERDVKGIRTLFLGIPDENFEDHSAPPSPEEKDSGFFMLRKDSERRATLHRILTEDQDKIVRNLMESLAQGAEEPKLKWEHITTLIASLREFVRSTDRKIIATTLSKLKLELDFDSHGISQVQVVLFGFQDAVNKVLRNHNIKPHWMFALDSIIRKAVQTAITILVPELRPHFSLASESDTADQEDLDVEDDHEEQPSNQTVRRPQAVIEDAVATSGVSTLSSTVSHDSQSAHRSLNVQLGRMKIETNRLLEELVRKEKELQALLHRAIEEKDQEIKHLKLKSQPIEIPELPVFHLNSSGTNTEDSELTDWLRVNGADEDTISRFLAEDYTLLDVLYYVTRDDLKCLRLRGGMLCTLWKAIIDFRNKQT

[4] = target: T3, Myotonin-protein kinase (Homo sapiens) (UniProt Q09013); conditions: at 10 µM
T3 sequence (whole entry): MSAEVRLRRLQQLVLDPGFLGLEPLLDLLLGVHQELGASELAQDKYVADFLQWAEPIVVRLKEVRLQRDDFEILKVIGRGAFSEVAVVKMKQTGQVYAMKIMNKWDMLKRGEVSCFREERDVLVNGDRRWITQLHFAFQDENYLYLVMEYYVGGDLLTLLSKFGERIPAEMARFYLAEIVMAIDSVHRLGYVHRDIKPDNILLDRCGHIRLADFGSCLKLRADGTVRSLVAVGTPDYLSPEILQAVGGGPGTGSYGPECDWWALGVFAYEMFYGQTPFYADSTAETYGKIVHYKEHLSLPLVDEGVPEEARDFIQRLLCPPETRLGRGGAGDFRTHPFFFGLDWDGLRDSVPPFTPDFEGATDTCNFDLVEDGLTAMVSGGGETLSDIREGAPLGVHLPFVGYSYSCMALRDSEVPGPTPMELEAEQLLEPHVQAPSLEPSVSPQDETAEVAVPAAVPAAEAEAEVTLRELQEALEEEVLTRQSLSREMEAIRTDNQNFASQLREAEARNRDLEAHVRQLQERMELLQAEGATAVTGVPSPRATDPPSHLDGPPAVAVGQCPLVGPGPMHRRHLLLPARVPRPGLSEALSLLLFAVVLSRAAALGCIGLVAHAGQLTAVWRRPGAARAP

CN1Cc2nccc(-c3cn(C)nc3-c3ccc(F)cc3)c2C1=O
% of inhibition [1]: 4%

O[C@H]1CC[C@H](Nc2ncc3nc(Nc4c(F)cc(F)cc4F)n([C@H]4CCOC4)c3n2)CC1
% of control [2]: 100%

CC[C@@H]1[C@H](F)C(=O)N[C@@H]1COc1nccc2cc(C(N)=O)c(OC)cc12 [ZIMLOVISERTIB]
% of inhibition [3]: -11.2%

CCN(CC)CCCCNc1ncc2cc(-c3cc(OC)cc(OC)c3)c(NC(=O)NC(C)(C)C)nc2n1
% of control [4]: 100%
